{"source": "patent US20120283223A1", "about": "“CEREBRAL NERVE CELL NEOGENESIS AGENT” (priority 2010, published 2012)", "origin": "cited, not measured here", "system": "cerebral nerve cells", "conditions": "in 3 to 4 weeks; Non-Patent Literature 1", "data": [{"smiles": "CNCCC(Oc1ccc(C(F)(F)F)cc1)c1ccccc1", "note": "(stereo not shown) [fluoxetine]", "values": [{"measurement": "number of cerebral nerve cells", "value": "increases"}]}]}
